# Tested on: Bdnf, Arc, Egr-1, Egr-2, Egr-3 mRNA in mouse PFC, HIP, mPFC
# Assay: In vivo gene expression
# Conditions: PFC and HIP, 30 min after 10 mg/kg i.p.
smiles,measurement,value
"CN(C)CCc1c[nH]c2ccccc12 [DMT, dimethyltryptamine]",Expression of Egr-2 mRNA,significantly elevated expression

# Source: PMC12916285 (Molecular Psychiatry, 2025)
